Measured values taken from patent US9993494B2, “Compositions and methods for treating fibrotic disease” (eFFECTOR Therapeutics, Inc., priority 2014, dated 2018).

Tested on: normal human lung fibroblasts
Assay: Ribosomal profiling: translational efficiency in TGFβ-treated fibroblasts
Format: cell-based
Conditions: TGFβ-treated fibroblasts
How it was run: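 Genome-wide RPF and total RNA libraries (ARTseq, RNA-Seq) were made from lysates of cycloheximide-treated, PBS-washed cells. After trimming and human-genome mapping, per-gene coding-region counts were compared between RPF and RNA for translational efficiency. Genes scoring low in either fraction were dropped.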

Structure (SMILES): CC(C=CC(=O)NO)=CC(C)C(=O)c1ccc(N(C)C)cc1 (stereo not drawn) [TSA, 7-[4-(dimethylamino)phenyl]-N-hydroxy-4,6-dimethyl-7-oxohepta-2,4-dienamide]
- effect in renormalizing the translational profile of the gene (gene RPS6 (ENSG00000137154)): − (− = <0.9)
- effect in renormalizing the translational profile of the gene (gene RPS6KA5 (ENSG00000100784)): − (− = <0.9)
- effect in renormalizing the translational profile of the gene (gene RPS7 (ENSG00000171863)): − (− = <0.9)
- effect in renormalizing the translational profile of the gene (gene RPS8 (ENSG00000142937)): − (− = <0.9)
- effect in renormalizing the translational profile of the gene (gene RPS9 (ENSG00000170889)): − (− = <0.9)
- effect in renormalizing the translational profile of the gene (gene RPS10 (ENSG00000124614)): − (− = <0.9)
- effect in renormalizing the translational profile of the gene (gene RPS11 (ENSG00000142534)): − (− = <0.9)
- effect in renormalizing the translational profile of the gene (gene RPS12 (ENSG00000112306)): − (− = <0.9)
- effect in renormalizing the translational profile of the gene (gene RPS13 (ENSG00000110700)): − (− = <0.9)
- effect in renormalizing the translational profile of the gene (gene RPS14 (ENSG00000164587)): − (− = <0.9)
- effect in renormalizing the translational profile of the gene (gene RPS15 (ENSG00000115268)): − (− = <0.9)
- effect in renormalizing the translational profile of the gene (gene RPS15A (ENSG00000134419)): − (− = <0.9)
- effect in renormalizing the translational profile of the gene (gene RPS16 (ENSG00000105193)): − (− = <0.9)
- effect in renormalizing the translational profile of the gene (gene RPS18 (ENSG00000231500)): − (− = <0.9)
- effect in renormalizing the translational profile of the gene (gene RPS19 (ENSG00000105372)): − (− = <0.9)
- effect in renormalizing the translational profile of the gene (gene RPS20 (ENSG00000008988)): − (− = <0.9)
- effect in renormalizing the translational profile of the gene (gene RPS21 (ENSG00000171858)): − (− = <0.9)
- effect in renormalizing the translational profile of the gene (gene RPS23 (ENSG00000186468)): − (− = <0.9)
- effect in renormalizing the translational profile of the gene (gene RPS24 (ENSG00000138326)): − (− = <0.9)
- effect in renormalizing the translational profile of the gene (gene RPS25 (ENSG00000118181)): − (− = <0.9)
- effect in renormalizing the translational profile of the gene (gene RPS26 (ENSG00000197728)): − (− = <0.9)
- effect in renormalizing the translational profile of the gene (gene RPS27 (ENSG00000177954)): − (− = <0.9)
- effect in renormalizing the translational profile of the gene (gene RPS27A (ENSG00000143947)): − (− = <0.9)
- effect in renormalizing the translational profile of the gene (gene RPS28 (ENSG00000233927)): − (− = <0.9)
- effect in renormalizing the translational profile of the gene (gene RPS29 (ENSG00000213741)): − (− = <0.9)
- effect in renormalizing the translational profile of the gene (gene RPSA (ENSG00000168028)): − (− = <0.9)
- effect in renormalizing the translational profile of the gene (gene RTN2 (ENSG00000125744)): − (− = <0.9)
- effect in renormalizing the translational profile of the gene (gene SEMA3A (ENSG00000075213)): − (− = <0.9)
- effect in renormalizing the translational profile of the gene (gene SGIP1 (ENSG00000118473)): − (− = <0.9)
- effect in renormalizing the translational profile of the gene (gene SH3BGR (ENSG00000185437)): − (− = <0.9)
- effect in renormalizing the translational profile of the gene (gene SHC3 (ENSG00000148082)): + (+ = 0.9 to 1.5)
- effect in renormalizing the translational profile of the gene (gene SLC2A12 (ENSG00000146411)): − (− = <0.9)
- effect in renormalizing the translational profile of the gene (gene SLC7A7 (ENSG00000155465)): − (− = <0.9)
- effect in renormalizing the translational profile of the gene (gene SLC15A3 (ENSG00000110446)): ++ (++ = 1.5 to 2.0)
- effect in renormalizing the translational profile of the gene (gene SLC25A6 (ENSG00000169100)): − (− = <0.9)
- effect in renormalizing the translational profile of the gene (gene SLC40A1 (ENSG00000138449)): + (+ = 0.9 to 1.5)
- effect in renormalizing the translational profile of the gene (gene SMO (ENSG00000128602)): − (− = <0.9)
- effect in renormalizing the translational profile of the gene (gene SNRPA (ENSG00000077312)): − (− = <0.9)
- effect in renormalizing the translational profile of the gene (gene SOX5 (ENSG00000134532)): + (+ = 0.9 to 1.5)
- effect in renormalizing the translational profile of the gene (gene SOX6 (ENSG00000110693)): − (− = <0.9)
- effect in renormalizing the translational profile of the gene (gene SPATA6 (ENSG00000132122)): − (− = <0.9)
- effect in renormalizing the translational profile of the gene (gene STAMBPL1 (ENSG00000138134)): + (+ = 0.9 to 1.5)
- effect in renormalizing the translational profile of the gene (gene STS (ENSG00000101846)): − (− = <0.9)
- effect in renormalizing the translational profile of the gene (gene SYNE2 (ENSG00000054654)): − (− = <0.9)
- effect in renormalizing the translational profile of the gene (gene TAF1D (ENSG00000166012)): + (+ = 0.9 to 1.5)
- effect in renormalizing the translational profile of the gene (gene TDG (ENSG00000139372)): − (− = <0.9)
- effect in renormalizing the translational profile of the gene (gene TEN1 (ENSG00000257949)): − (− = <0.9)
- effect in renormalizing the translational profile of the gene (gene TET2 (ENSG00000168769)): − (− = <0.9)
- effect in renormalizing the translational profile of the gene (gene TET3 (ENSG00000187605)): − (− = <0.9)
- effect in renormalizing the translational profile of the gene (gene TGFBI (ENSG00000120708)): − (− = <0.9)
- effect in renormalizing the translational profile of the gene (gene THBS3 (ENSG00000169231)): − (− = <0.9)
- effect in renormalizing the translational profile of the gene (gene THG1L (ENSG00000113272)): − (− = <0.9)
- effect in renormalizing the translational profile of the gene (gene TIMM9 (ENSG00000100575)): − (− = <0.9)
- effect in renormalizing the translational profile of the gene (gene TKT (ENSG00000163931)): − (− = <0.9)
- effect in renormalizing the translational profile of the gene (gene TMTC1 (ENSG00000133687)): + (+ = 0.9 to 1.5)
- effect in renormalizing the translational profile of the gene (gene TOMM7 (ENSG00000196683)): − (− = <0.9)
- effect in renormalizing the translational profile of the gene (gene TOP2A (ENSG00000131747)): − (− = <0.9)
- effect in renormalizing the translational profile of the gene (gene TPGS1 (ENSG00000141933)): − (− = <0.9)
- effect in renormalizing the translational profile of the gene (gene TPM2 (ENSG00000198467)): − (− = <0.9)
- effect in renormalizing the translational profile of the gene (gene TPT1 (ENSG00000133112)): − (− = <0.9)
- effect in renormalizing the translational profile of the gene (gene TRERF1 (ENSG00000124496)): − (− = <0.9)
- effect in renormalizing the translational profile of the gene (gene UBA52 (ENSG00000221983)): − (− = <0.9)
- effect in renormalizing the translational profile of the gene (gene UQCRB (ENSG00000156467)): − (− = <0.9)
- effect in renormalizing the translational profile of the gene (gene UTRN (ENSG00000152818)): − (− = <0.9)
- effect in renormalizing the translational profile of the gene (gene VIM (ENSG00000026025)): − (− = <0.9)
- effect in renormalizing the translational profile of the gene (gene ZNF581 (ENSG00000171425)): − (− = <0.9)
